Results from US20230200390A1, “SELECTIVE HERBICIDES BASED ON SUBSTITUTED ISOXAZOLIN CARBOXAMIDES AND MEFENPYR-DIETHYL” (BAYER AKTIENGESELLSCHAFT, priority 2020, published 2023).

What was measured:
Assay type in all cases: in vivo
[1] = tested on: spring barley, HORVS Montoya; test: Tank-mix; post-emergence: crop damage by herbicide with/without safener mefenpyr-diethyl; conditions: 21 DAT
How it was run: (§1)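 Visual percent crop damage (0–100 relative to untreated plants) assessed 1–3 weeks post-application. Plants in sandy loam were sprayed at the 1–3-leaf stage with herbicide with or without safener at several rates, water volume 300 l/ha.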

[2] = tested on: spring wheat, TRZAS Triso; test: as above; conditions: 21 DAT
How it was run: as §1

[3] = tested on: spring barley, HORVS Montoya; test: Seed treatment with safener; pre-emergence herbicide, crop damage; conditions: for HER effect + SAF / Reduction [%] / Reduction [Difference]: mefenpyr-diethyl 0.25 g a.i./kg seed
Protocol: (§2) For the safener seed treatment, sufficient seeds of the respective crops (spring wheat, TRZAS; spring barley, HORVS; maize, ZEAMA) were weighed into screw top glass bottles approximately twice the volume of the seeds.
(§3) The specified safeners, formulated as wettable powder (WP) were weighed out so that the specified rates (g a.i./kg seed) would be obtained, dissolved in water (1 ml water per 10 g of seeds), and added to the seeds to produce a slurry.
(§4) The bottles were capped and then placed in an overhead shaker (set at medium speed for ca. 60 minutes) so that the seeds were evenly coated with the slurry. The bottles were uncapped and the seeds were either placed on paper and dried for an interval of 3-4 hours prior to sowing, or directly sown. Seeds were placed in sandy loam soil in pots of a diameter of 7-8 cm, and covered with soil.
(§5) Pre-emergence application of the specified herbicides was done subsequently, on two sets of plants:
(§6) a) seed treatment with safener, as described above
(§7) The herbicides were formulated as WP and was sprayed onto the soil surface as an aqueous suspension at an equivalent water application rate of 300 l/ha.
(§8) After application, the test plants were kept in the greenhouse under good growth conditions. At intervals up to 4 weeks after application (=28 days after treatment; DAT), % crop damage observed on the treated plants was scored visually in comparison to control plants that had not received any safener or herbicide treatment.
(§9) Values in the table below are mean values of at least 2 replicates.

[4] = tested on: spring wheat, TRZAS Triso; test: as above; conditions: for HER effect + SAF / Reduction [%] / Reduction [Difference]: mefenpyr-diethyl 0.25 g a.i./kg seed
Protocol: as §2, §3, §4, §5, §6, §7, §8, §9

[5] = tested on: spring barley, HORVS Montoya; test: Seed treatment with safener; post-emergence herbicide, crop damage; conditions: 21 DAT; for HER effect + SAF / Reduction [%] / Reduction [Difference]: mefenpyr-diethyl 0.5 g a.i./kg seed
How it was run: (§10)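 Crop injury was rated visually in % at 10 and 21 days after post-emergence spraying at the 2-leaf stage. The herbicide was a WP in 300 l/ha water plus 1 l/ha MERO. Plants grew from seed either safener-coated at stated g a.i./kg rates via a milk-diluted slurry, or untreated.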

[6] = tested on: spring wheat, TRZAS Triso; test: as above; conditions: 21 DAT; for HER effect + SAF [%] (crop damage) / Reduction [%] / Reduction [Difference]: mefenpyr-diethyl 0.5 g a.i./kg seed; for HER effect [%] (crop damage, herbicide without safener): no safener
How it was run: as §10

[7] = HER 0.5 g a.i./ha + mefenpyr-diethyl 50 g a.i./ha
[8] = HER 2 g a.i./ha + mefenpyr-diethyl 100 g a.i./ha
[9] = HER 1 g a.i./ha + mefenpyr-diethyl 50 g a.i./ha
[10] = HER 4 g a.i./ha + mefenpyr-diethyl 100 g a.i./ha
[11] = HER 5 g a.i./ha pre-emergence, 11 DAT (Interim)
[12] = HER 5 g a.i./ha pre-emergence, 21 DAT (Final)
[13] = HER 15 g a.i./ha pre-emergence, 11 DAT (Interim)
[14] = HER 15 g a.i./ha pre-emergence, 21 DAT (Final)
[15] = herbicide alone 5 g a.i./ha pre-emergence, 11 DAT (Interim)
[16] = herbicide alone 5 g a.i./ha pre-emergence, 21 DAT (Final)
[17] = herbicide alone 15 g a.i./ha pre-emergence, 11 DAT (Interim)
[18] = herbicide alone 15 g a.i./ha pre-emergence, 21 DAT (Final)
[19] = HER 0.5 g a.i./ha post-emergence

C=CC1(C(=O)NC2COC(C(=O)OC)C2)CC(c2cc(F)cc(F)c2)=NO1 (mixture of isomers) [Example 1.68]
HER effect + SAF [1, 7]: 0%
Reduction [%] [1, 7]: 100%
Reduction [Difference] [1, 7]: 30
HER effect + SAF [1, 8]: 10%
Reduction [%] [1, 8]: 75%
Reduction [Difference] [1, 8]: 30
HER effect ([1]; herbicide alone 0.5 g a.i./ha): 30%
HER effect ([1]; herbicide alone 2 g a.i./ha): 40%
HER effect + SAF [2, 9]: 30%
Reduction [%] [2, 9]: 63%
Reduction [Difference] [2, 9]: 50
HER effect + SAF [2, 10]: 60%
Reduction [%] [2, 10]: 29%
Reduction [Difference] [2, 10]: 25
HER effect ([2]; herbicide alone 1 g a.i./ha): 80%
HER effect ([2]; herbicide alone 4 g a.i./ha): 85%
HER effect + SAF [3, 11]: 5%
Reduction [%] [3, 11]: 80%
Reduction [Difference] [3, 11]: 20
HER effect + SAF [3, 12]: 5%
Reduction [%] [3, 12]: 83%
Reduction [Difference] [3, 12]: 25
HER effect + SAF [3, 13]: 0%
Reduction [%] [3, 13]: 100%
Reduction [Difference] [3, 13]: 65
HER effect + SAF [3, 14]: 60%
Reduction [%] [3, 14]: 25%
Reduction [Difference] [3, 14]: 20
HER effect [3, 15]: 25%
HER effect [3, 16]: 30%
HER effect [3, 17]: 65%
HER effect [3, 18]: 80%
HER effect + SAF [4, 11]: 15%
Reduction [%] [4, 11]: 67%
Reduction [Difference] [4, 11]: 30
HER effect + SAF [4, 12]: 5%
Reduction [%] [4, 12]: 89%
Reduction [Difference] [4, 12]: 40
HER effect + SAF [4, 13]: 30%
Reduction [%] [4, 13]: 63%
Reduction [Difference] [4, 13]: 50
HER effect + SAF [4, 14]: 30%
Reduction [%] [4, 14]: 65%
Reduction [Difference] [4, 14]: 55
HER effect [4, 15]: 45%
HER effect [4, 16]: 45%
HER effect [4, 17]: 80%
HER effect [4, 18]: 85%
HER effect + SAF [5, 19]: 0%
Reduction [%] [5, 19]: 100%
Reduction [Difference] [5, 19]: 30
HER effect + SAF ([5]; HER 2 g a.i./ha post-emergence): 0%
Reduction [%] ([5]; HER 2 g a.i./ha post-emergence): 100%
Reduction [Difference] ([5]; HER 2 g a.i./ha post-emergence): 40
HER effect ([5]; herbicide alone 0.5 g a.i./ha post-emergence): 30%
HER effect ([5]; herbicide alone 2 g a.i./ha post-emergence): 40%
HER effect + SAF [%] (crop damage) ([6]; HER dose 1 g a.i./ha): 20%
Reduction [%] ([6]; HER dose 1 g a.i./ha): 75%
Reduction [Difference] ([6]; HER dose 1 g a.i./ha): 60
HER effect [%] (crop damage, herbicide without safener) ([6]; HER dose 1 g a.i./ha): 80%
HER effect + SAF [%] (crop damage) ([6]; HER dose 4 g a.i./ha): 30%
Reduction [%] ([6]; HER dose 4 g a.i./ha): 65%
Reduction [Difference] ([6]; HER dose 4 g a.i./ha): 55
HER effect [%] (crop damage, herbicide without safener) ([6]; HER dose 4 g a.i./ha): 85%
